Results as given in patent US20240390487A1, “TLR AGONISTS FOR REDUCING ACTIVATION-INDUCED PD-1 EXPRESSION ON T CELLS AND METHODS OF USE” (WISCONSIN ALUMNI RESEARCH FOUNDATION, priority 2016, published 2024).

Tests used:
Purified DC = test: IL-12 p70 ELISA of culture supernatant of TLR-agonist-stimulated DC; format: cell-based, mice; conditions: 24 hours, IL12 p70 by ELISA, versus media alone
Procedure: FIGS. 14A-14D. Changes in PD-1 expression following TLR stimulation are mediated by IL-12 secreted from APCs. Panel A: Purified OT-1 T cells (T), B cells (B), or dendritic cells (DC) were activated with SIINFEKL peptide (SEQ ID NO:1, OVA) or with a non-specific peptide (NS) in the presence of either TLR1/2 (TLR1/2) agonist, TLR7 agonist (TLR7), or media alone. After 24 hours, cells were washed and co-cultured with naïve purified OT-1 CD8+ T cells for an additional 24 hours and then assessed for expression of the indicated surface receptors (4-1BB, CD3, PD-1, LAG3, CTLA-4, and TIM3) by flow cytometry. Shown is the MFI for each marker, with samples assessed in triplicate. Panel B: Purified DC were stimulated in the presence of TLR1/2 agonist, TLR7 agonist, or media alone. After 24 hours, media was collected and used for culture of purified OT-1 CD8+ T cells with naïve DC in the presence of SIINFEKL peptide (SEQ ID NO:1, OVA) or non-specific (NS) peptide. After 24 hours, cells were assessed for expression of the indicated surface receptors (4-1BB, PD-1, LAG3, and CTLA-4) by flow cytometry. Shown is mean and standard error of the MFI for each marker, with samples assessed in triplicate. Panel C: Purified DC were stimulated in the presence of TLR1/2 agonist (Pam3), TLR3 agonist (PolyIC), TLR4 agonist (MPLA), TLR7/8 agonists (Gard, R848), TLR9 agonist (ODN), or media only (none) for 24 hours. Culture supernatant was then evaluated for the presence of IL12 p70 by ELISA. Asterisks indicate significant (p<0.05) IL-12 release compared to media alone. Panel D: Purified DC were stimulated in the presence of TLR1/2 agonist, TLR7 agonist, or media alone. After 24 hours, medium was collected and used for culture of purified OT-1 CD8+ T cells with naïve DC in the presence of SIINFEKL peptide (SEQ ID NO:1, OVA) and, where indicated, 0.1 ng/ml IL-12 or 0.12 μg/mL anti-IL-12 antibody. After 24 hours, cells were assessed for expression of the indicated surface receptors (4-1BB, PD-1, LAG3, and CTLA-4) by flow cytometry. Shown is mean and standard error of the MFI for each marker, with samples assessed in triplicate and are representative of two similar experiments. Asterisks indicate P<0.01.
Changes in PD-1 expression following TLR stimulation are mediated by IL-12 secreted from APCs: TLR are expressed by both T cells and professional APC. To determine if the effects on T-cell checkpoint expression were mediated by direct effects of TLR ligands on T cells or APC, purified OT-1 T cells were activated with SIINFEKL peptide (SEQ ID NO:1) alone or in the presence of TLR1/2 or TLR7 agonist, or with purified DC or B cells pre-treated with TLR agonists. After 24 hours cells were evaluated for expression of 4-1BB, CD3, PD-1, LAG-3, CTLA-4, and TIM-3. […]

CD8+ OT-1 T cells = conditions: for Eomesodermin (EOMES gene) expression / expression of genes associated with T-cell regulation (including PD-1 and IL-10): 24 to 72 hours, versus peptide alone
OT-1 CD8+ T cells = test: Adoptive transfer of OT-1 T cells and immunization of C57BL/6 mice, marker expression on splenic OT-1 T cells; format: in vivo; conditions: OVA or FT peptide immunization with TLR ligand versus peptide alone; splenocytes up to 14 days; early after T-cell activation
Source text: Vaccine type can affect expression of T-cell checkpoint molecules on activated CD8+ T cells: This Example used an ovalbumin vaccination model. OT-1 cells were adoptively transferred to naïve C57BL/6 mice. The day after transfer, mice were immunized once with (a) DNA encoding ovalbumin, (b) Listeria monocytogenes (Lm) encoding ovalbumin, (c) OVA257-264 peptide (SIINFEKL (SEQ ID NO:1)), (d) SIINFEKL peptide (SEQ ID NO:1) with DNA vector, (e) DNA vector alone, (f) Lm encoding control vector with no antigen, or (g) NS (non-specific) peptide. Splenocytes were collected the day after vaccination for expression of cell surface markers on antigen-specific OT-1 cells. […] LAG-3 expression was not reduced in the presence of Lm co-administered with peptide.
TLR stimulation at the time of T-cell activation reduced expression of PD-1 in vivo: To determine whether TLR stimulation at the time of T-cell activation with vaccination elicited a similar reduction in PD-1 in vivo, OT-1 cells were adoptively transferred to naïve C57BL/6 mice as above, and immunized once with OVA or FT peptide (or non-specific peptide) one day later in the presence or absence of a TLR 1/2, TLR7, or TLR9 ligand. Splenocytes were collected from groups up to 14 days after immunization and evaluated for expression of 4-1BB, PD-1 and LAG-3.
Adoptive transfer and immunization of wild type C57BL/6 (B6) mice: OT-1 splenocytes were harvested and CD8+ T cells were isolated as described above. 2×10^6 OT-1 T cells were adoptively transferred into 6- to 10-week old female B6 mice via intraperitoneal injection. The day following transfer, mice were immunized subcutaneously with 100 μg SIINFEKL peptide (SEQ ID NO:1) in PBS without adjuvant, intradermally with 100 μg plasmid encoding full length secreted chicken egg ovalbumin (pCI-neo-sOVA (psOVA), Addgene plasmid #25098, Cambridge, MA), intraperitoneally with 5×10^6 cfu of a Listeria monocytogenes vector encoding ovalbumin (Lm-OVA, gift of JD Sauer), or vehicle or corresponding wild-type Lm or DNA plasmid vector. TLR agonists were co-injected with the vaccine at the following concentrations: 20 μg/mouse Pam3CSK4, 100 μg/mouse Gardiquimod, 50 μg/mouse ODN 1826, or vehicle. Mice were euthanized at the times indicated. Spleens were collected, processed as described above, and T-cell populations analyzed by flow cytometry. Data collected on different days were normalized using rainbow beads (Spherotech, Lake Forest, IL; RFP-30-5A).

With Poly(I:C) [PolyI:C] the “secretion of IL-12 by DC” value (Purified DC) was “No significant secretion”.
CCNCc1nc2c(N)nc3ccccc3c2n1CC(C)(C)O [Gardiquimod] was tested, and the “expression of genes associated with Th1-biased cytotoxic effector function (IFNγ, TNFα, granzymes A-C, perforin, T-Bet)” value (CD8+ OT-1 T cells) was “induced”, the “Eomesodermin (EOMES gene) expression” value (CD8+ OT-1 T cells) was “reduced” and the “expression of genes associated with T-cell regulation (including PD-1 and IL-10)” value (CD8+ OT-1 T cells) was “reduced”. For the same molecule, the “secretion of IL-12 by DC” value (Purified DC) was “greatest secretion” and the “PD-1 expression on OT-1 CD8+ T cells in vivo” value (OT-1 CD8+ T cells) was “significantly reduced”.
In the case of Monophosphoryl Lipid A [MPLAs], the “secretion of IL-12 by DC” value (Purified DC) is reported as “No significant secretion”.
In the case of Pam3CSK4, the “expression of genes associated with Th1-biased cytotoxic effector function (IFNγ, TNFα, granzymes A-C, perforin, T-Bet)” value (CD8+ OT-1 T cells) is reported as “induced”, the “Eomesodermin (EOMES gene) expression” value (CD8+ OT-1 T cells) is reported as “reduced” and the “expression of genes associated with T-cell regulation (including PD-1 and IL-10)” value (CD8+ OT-1 T cells) is reported as “reduced”. For the same molecule, the “secretion of IL-12 by DC” value (Purified DC) was “greatest secretion” and the “PD-1 expression on OT-1 CD8+ T cells in vivo” value (OT-1 CD8+ T cells) was “significantly reduced”.
